The results in this text go back to PubChem BioAssay (NCI).

The structures appear in SMILES notation. Values joined by “and” are separate entries in the source; they are usually repeats but may differ in a detail not shown here. Equal values may be shown once.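 96-well plates; 48 h exposure; 5 concentrations. Endpoints by linear interpolation between flanking doses. Not reached: highest tested concentration assigned. Abbreviation: GI50, concentration required for 50% inhibition of growth. TGI: total growth inhibition.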

Holding throughout (assay): growth of human tumour cells (NCI), 48 h
Experiment [1] deals with RPMI-8226 leukemia.
Experiment [2] deals with NCI-H460 lung.
Experiment [3] has as its system SNB-19 CNS.
In experiment [4] the test system is MDA-MB-435.
Experiment [5] relates to HL-60(TB) leukemia.
Experiment [6] relates to A498 renal.
Experiment [7] has as its system TK-10 renal.
For experiment [8], the system named is BT-549 breast.
The test system of experiment [9] is OVCAR-4 ovarian.
The subject of experiment [10] is SN12C renal.

In the case of `CCOC(=O)c1c(Cl)c2c(n1Cc1ccccc1)-c1oncc1CCC2`, the GI50 in experiment [1] is 3.27 µM; in [2], 3.62 µM; in [3], above 100 µM; in experiment [4], 1.4 µM; in experiment [5], 3.32 µM; in experiment [6] it was 4.38 µM. Besides, the GI50 in experiment [7] is above 100 µM. The TGI was above 100 µM in experiment [1]; above 100 µM in experiment [2]; above 100 µM in experiment [3]; 4.92 µM in [4]; above 100 µM in experiment [5]; above 100 µM in experiment [6]. The compound also gave a TGI in experiment [7] above 100 µM.
With `CC(C)(C)OC(=O)CC(NC(=O)OCc1ccccc1)NC(=O)OC(C)(C)C` (stereo not drawn), the GI50 in experiment [8] was 14.2 µg/mL; in experiment [9], 78.9 µg/mL; in experiment [10], 51.9 µg/mL; in experiment [1] it was 32.8 µg/mL; in experiment [2] it was 39.8 µg/mL; in experiment [3], 76.2 µg/mL. Besides, the figures for the GI50 in experiment [4], in experiment [5] and in experiment [6] were 87.9 µg/mL, 20.8 µg/mL and 76.4 µg/mL, respectively. This compound also had a TGI in experiment [5] of 50.7 µg/mL.
Consider `O=c1c(-c2ccccc2)c(SCCCN2CCCCC2)n(-c2ccccc2)c(=S)n1-c1ccccc1`, for which the TGI in experiment [8] amounted to 35.5 µM; in experiment [9], 58 µM; in [1] it was 37.7 µM; in [2], 31.5 µM; in [4], 34.5 µM; in [5] it was 38.6 µM. Besides, the results for the TGI in experiment [6] and in experiment [7] were 29 µM and 37.3 µM, respectively.
Consider `C=CCN1C(=O)NC(=O)/C(=C/c2c3ccccc3cc3ccccc23)C1=O`, for which the TGI in experiment [9] is 47.5 µM; in experiment [2] it was 37 µM; in experiment [3] it was 47.7 µM; in experiment [7] it was 37.4 µM.
Regarding `O=c1c2ccccc2nc2n1CCc1c-2[nH]c2ccccc12`, the GI50 in [9] was 18.9 µM. In addition, the TGI in [9] is 43.8 µM; in [1], above 100 µM; in experiment [3] it was 29.2 µM; in [5], above 100 µM; in experiment [7], 63.5 µM.
As for `C/C=C(/CCC1NCCc2c1[nH]c1ccccc21)[Si](C)(C)C` (stereo not drawn), the TGI is > 100 µM and 11.9 µM in experiment [9]; > 100 µM and 16.9 µM in experiment [10]; > 100 µM and 27.3 µM in [3]; 72 µM and 23.5 µM in [6]; > 100 µM and 24.8 µM in experiment [7]. The GI50 in experiment [3] is > 100 µM and 13.9 µM; in experiment [7], > 100 µM and 12.2 µM.
Regarding `NCCCCNOCCCN`, the TGI in [8], in [9], in experiment [10], in experiment [1], in [2] and in [3] was above 100 µM throughout. Besides, the TGI in experiment [4] and in [7] was above 100 µM in each case.
For the compound `O=c1[nH]c2ccccc2c2oc3ccccc3c12`, the TGI in [8], in experiment [9], in [10], in experiment [2], in [3] and in experiment [4] was above 100 µM each time. The TGI in experiment [6] and in [7] was above 100 µM each time.
Consider `O=[N+]([O-])c1ccc(N/N=C\c2cc(Br)ccc2O)nc1`, for which the GI50 in [8] was 4.95 µM; in experiment [9], 0.543 µM; in experiment [10] it was 0.807 µM; in experiment [1], 0.753 µM; in experiment [2] it was 0.636 µM; in experiment [3] it was 1.05 µM. The GI50 was 1.39 µM in experiment [4], 0.314 µM in experiment [5] and 6.11 µM in experiment [6]. Moreover, the TGI was above 100 µM in experiment [8]; 4.02 µM in [9]; 12.9 µM in experiment [10]; above 100 µM in experiment [1]; 2.72 µM in [2]; 19.8 µM in experiment [3]. The TGI in experiment [4], in [5] and in [6] was above 100 µM throughout.
Consider `NC(Cc1cc(I)c(Oc2ccc(O)c(I)c2)c(I)c1)C(=O)O` (stereo not drawn), for which the TGI in experiment [8] was above 100 µM; in [9], above 100 µM; in experiment [10], above 100 µM; in [1], 84 µM; in experiment [3], above 100 µM; in experiment [4] it was above 100 µM. Moreover, the figures for the TGI in experiment [6] and in [7] were 92.6 µM and above 100 µM, respectively.
As to `O=S1(=O)C(=C(c2ccccc2)c2ccccc2)S(=O)(=O)c2ccccc21`, the TGI in [9], in experiment [10], in [1], in experiment [2], in experiment [3] and in experiment [5] was above 100 µM in each case. Besides, the TGI in [6] was above 100 µM.
